{
  "source": "paper PMC3392217",
  "about": "“BmK-YA, an Enkephalin-Like Peptide in Scorpion Venom” (PLoS ONE, 2012)",
  "type_in_all_cases": "cell-based",
  "key": {"human opioid receptor δ": {"target": "T1, human opioid receptor δ (Homo sapiens, UniProt P41143)", "T1 construct": "expressed in transfected cells", "T1 sequence (P41143 whole entry)": "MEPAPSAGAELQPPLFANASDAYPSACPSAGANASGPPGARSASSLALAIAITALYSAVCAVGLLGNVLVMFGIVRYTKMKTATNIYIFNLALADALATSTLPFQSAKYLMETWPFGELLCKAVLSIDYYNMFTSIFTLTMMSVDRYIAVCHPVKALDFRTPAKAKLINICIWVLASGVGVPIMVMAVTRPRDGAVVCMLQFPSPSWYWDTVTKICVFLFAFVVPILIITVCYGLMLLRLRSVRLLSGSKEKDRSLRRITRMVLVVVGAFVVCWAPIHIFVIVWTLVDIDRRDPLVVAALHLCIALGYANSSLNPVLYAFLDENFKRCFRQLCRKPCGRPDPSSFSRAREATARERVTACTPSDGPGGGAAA", "assay": "Ca2+ response monitored by FLIPR, δ-expressing cells", "procedure": "(§1) The assay was performed as reported earlier.\n(§2) Potency is determined by EC50."}, "human opioid receptor μ": {"target": "T2, human opioid receptor μ (Homo sapiens, UniProt P35372)", "T2 construct": "expressed in transfected cells", "T2 sequence (P35372 whole entry)": "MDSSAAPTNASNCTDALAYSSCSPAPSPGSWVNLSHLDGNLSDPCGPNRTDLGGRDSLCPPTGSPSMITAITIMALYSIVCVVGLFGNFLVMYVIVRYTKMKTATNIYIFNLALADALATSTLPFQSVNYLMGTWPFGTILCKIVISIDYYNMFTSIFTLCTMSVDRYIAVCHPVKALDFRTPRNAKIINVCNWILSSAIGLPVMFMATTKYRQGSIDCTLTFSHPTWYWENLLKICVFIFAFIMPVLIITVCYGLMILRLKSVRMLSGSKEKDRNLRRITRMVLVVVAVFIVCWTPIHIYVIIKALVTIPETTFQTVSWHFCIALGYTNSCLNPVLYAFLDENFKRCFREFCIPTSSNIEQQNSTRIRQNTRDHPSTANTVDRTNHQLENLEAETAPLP", "assay": "Ca2+ response monitored by FLIPR, μ-expressing cells", "settings": "μ-expressing HEK293T cells", "procedure": "as §1, §2"}, "human opioid receptor κ": {"target": "T3, human opioid receptor κ (Homo sapiens, UniProt P41145)", "T3 construct": "expressed in transfected cells", "T3 sequence (P41145 whole entry)": "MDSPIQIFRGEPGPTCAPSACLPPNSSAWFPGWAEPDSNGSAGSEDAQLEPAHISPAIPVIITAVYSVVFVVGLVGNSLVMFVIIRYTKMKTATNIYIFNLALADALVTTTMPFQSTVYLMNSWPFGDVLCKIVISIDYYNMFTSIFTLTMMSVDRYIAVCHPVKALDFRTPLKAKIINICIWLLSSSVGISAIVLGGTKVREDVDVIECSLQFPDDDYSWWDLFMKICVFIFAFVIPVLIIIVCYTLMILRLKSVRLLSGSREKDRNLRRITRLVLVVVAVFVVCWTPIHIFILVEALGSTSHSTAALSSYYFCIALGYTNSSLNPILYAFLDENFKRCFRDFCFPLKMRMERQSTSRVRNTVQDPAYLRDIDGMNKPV", "assay": "Ca2+ response monitored by FLIPR, κ-expressing cells", "settings": "κ-expressing HEK293T cells", "procedure": "as §1, §2"}, "[1]": {"settings": "Gqαi3 cotransfected, Fluo-4 AM, FLIPR, mean±SE, n = 3, read-out: EC50 (intracellular Ca2+ mobilization)"}},
  "note": "No end group written: not given here.",
  "data": [
    {"substance": "YGGHMNPA [His^4-BmK-YA]", "values": [
      {"measurement": "Agonist activity, in words", "setting": "human opioid receptor δ; δ-expressing HEK293T cells, 1 nM to 50 µM", "value": "no activity was detected"},
      {"measurement": "Agonist activity, in words", "setting": "human opioid receptor μ; 1 nM to 50 µM", "value": "no activity was detected"},
      {"measurement": "Agonist activity, in words", "setting": "human opioid receptor κ; 1 nM to 50 µM", "value": "no activity was detected"}
    ]},
    {"substance": "YGGYMNPA-NH2 [BmK-YA]", "values": [
      {"measurement": "Selectivity to the δ-subtype over κ (times)", "setting": "human opioid receptor δ; δ versus κ, FLIPR EC50", "value": 12, "unit": "times"},
      {"measurement": "Selectivity to the δ-subtype over μ (times)", "setting": "human opioid receptor δ; δ versus μ, FLIPR EC50", "value": 6.8, "unit": "times"},
      {"measurement": "EC50", "setting": "human opioid receptor δ; δ-expressing HEK293T cells, Gqαi3 cotransfected, Fluo-4 AM, FLIPR, mean±SE, n = 3, read-out: EC50 (intracellular Ca2+ mobilization)", "value": 2.5, "unit": "µM"},
      {"measurement": "EC50", "setting": "human opioid receptor μ; [1]", "value": 17, "unit": "µM"},
      {"measurement": "EC50", "setting": "human opioid receptor κ; [1]", "value": "30 ± 0.5", "unit": "µM"}
    ]}
  ]
}
